Measured values taken from PMC10578352, “Identification of a Protein Arginine Methyltransferase 7 (PRMT7)/Protein Arginine Methyltransferase 9 (PRMT9) Inhibitor” (Journal of Medicinal Chemistry, 2023).

Columns and labels:
PRMT1 = target: T1, PRMT1 (Homo sapiens, UniProt Q99873); assay: HotSpot radioisotope-based filter assay, PRMT1; type: biochemical; conditions: Figure 2; from IC50 values of ref 31
T1 construct: PRMT1 (residues 2–371, C-terminus); with an N-terminal GST-tag; GST (N); purchased Reaction Biology Corporation
Experimental: Then, ^3H-SAM (final concentration of 1 μM) was delivered into the reaction mixture to initiate the reaction. After incubation for 60 min at 30 °C, the reaction mixture was delivered to filter-paper for detection (as assessed by scintillation). Data were analyzed using Excel and GraphPad Prism 6.0 software (GraphPad Software Inc., San Diego, CA) for IC50 curve fits using sigmoidal dose vs response - variable slope (four parameters) equations.

[1] = target: T2, MLL1/KMT2A (5 component complex) (Homo sapiens, UniProt Q03164); assay: HotSpot KMT activity assay, MLL1; type: biochemical; conditions: read-out: % MLL1 residual activity
T2 construct: MLL1 residues 3745–3969, C-terminus; His (N); purchased Reaction Biology Corporation
Source text: ; MW = 35.4 kDa; Genbank Accession # NM_018489), or the human recombinant EZH2-containing five-member polycomb repressive complex 2 (including EZH2 residues 2–746, AEBP2 2–517, EED 2–441, RbAp48 2–425, SUZ12 2–739; all full-length; with N-terminal Flag-tag on EED and N-terminal His-tag on all others; MW = 333.8 kDa; Genbank Accession # NM_001203247, NM_001114176, NM_003797, NM_005610, NM_015355), or the human recombinant G9a (residues 913–1193, C-terminus; with an N-terminal His-tag; MW = 34.6 kDa; Genbank Accession # NM_006709.3), or the human recombinant MLL1 complex (including MLL1 residues 3745–3969, C-terminus, WDR5 22–334, C-terminus, RbBP5 1–538, C-terminus, ASH2L 2–534, C-terminus, DPY-30 1–99, C-terminus; N-terminal His-tag on all subunits; MW = 212.0 kDa; Genbank Accession # NM_005933, NM_017588, NM_005057, NM_001105214, NM_0325742), or the human recombinant SET7/9 (residues 2–366, C-terminus; with a N-terminal GST-tag and a C-terminal His-tag; MW = 68.5 kDa; Genbank Accession # NM_030648), or the human recombinant SMYD3 (residues 2–428, C-terminus; C-terminal His-tag; MW = 50.1 kDa; Genbank Accession # NM_001167740), or the human recombinant SUV39H2 (residues 46–410, C-terminus; N-terminal fusion protein with a C-terminal His-tag; MW = 98.8 kDa; GenBank Accession No. NM_001193424), or the human recombinant DOT1L (residues 1–416; N-terminal GST-tag; MW = 80.0 kDa; Genbank Accession # NM_032482) was added to a solution of the proper substrate (oligo nucleosomes for ASH1L, MLL1 complex, and DOT1L, final concentration 0.05 mg/mL; core histone for EZH2 complex and SET7/9, final concentration 0.05 mg/mL; histone H3 for SUV39H2, final concentration 5 μM; histone H3 1–21 for G9a, final concentration 2.5 μM) in freshly prepared reaction buffer (50 mM Tris-HCl (pH 8.5), 5 mM MgCl2, 50 mM NaCl, 1 mM DTT, 1 mM PMSF, 1% DMSO) and gently mixed. […] After incubation for 60 min at 30 °C, the reaction mixture was delivered to filter paper for detection (as assessed by scintillation). […] Values obtained for each compound are mean ± SD determined for two separate experiments.

T1 sequence (Q99873 2-371): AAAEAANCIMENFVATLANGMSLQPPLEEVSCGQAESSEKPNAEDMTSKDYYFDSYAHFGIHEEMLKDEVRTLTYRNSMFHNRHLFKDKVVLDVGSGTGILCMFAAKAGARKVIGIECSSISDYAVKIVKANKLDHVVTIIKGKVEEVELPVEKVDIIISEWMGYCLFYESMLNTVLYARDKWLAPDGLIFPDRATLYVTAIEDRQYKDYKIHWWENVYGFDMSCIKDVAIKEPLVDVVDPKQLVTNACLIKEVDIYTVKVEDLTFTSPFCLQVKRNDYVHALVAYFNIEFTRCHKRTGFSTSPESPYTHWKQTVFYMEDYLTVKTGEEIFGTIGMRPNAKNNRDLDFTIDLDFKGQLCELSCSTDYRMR

selectivity index for PRMT7 over PRMT1 (PRMT1) [fold] | remaining activity at 10 µM ([1]; 10 μM) [%] | remaining activity at 100 µM ([1]; 100 μM) [%] | SMILES
38 | – | – | COC(=O)c1cc(O)c2cc(NC(=O)NCCCCCNC(=N)NC[C@H]3O[C@@H](n4cnc5c(N)ncnc54)[C@H](O)[C@@H]3O)ccc2c1 [1c]
– | 90.5 ± 2.83 | 76.9 ± 3.96 | COC(=O)c1cc(O)c2cc(NC(=O)NCCCNC(=N)NC[C@H]3O[C@@H](n4cnc5c(N)ncnc54)[C@H](O)[C@@H]3O)cc(C(F)(F)F)c2c1 [1j, Methyl 6-(3-(3-(3-(((2R,3S,4R,5R)-5-(6-Amino-9H-purin-9-yl)-3,4-dihydroxytetrahydrofuran-2-yl)methyl)guanidino)propyl)ureido)-4-hydroxy-8-(trifluoromethyl)-2-naphthoate]
